Drawing on PubChem BioAssay (NCI), this text covers GI50 and TGI for twelve compounds.

Test systems include 786-0 renal; NCI-H226 lung; SR leukemia; SK-MEL-28 melanoma; MDA-MB-231 breast; HCT-15 colon; M14 melanoma; MOLT-4 leukemia; SF-539 CNS; CCRF-CEM leukemia.
What all share (assay): growth of human tumour cells (NCI), 48 h

“And” between values parts separate entries of the source, which are not always exact repeats. Identical values can stand only once.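 Grown in 96-well plates, cells were treated for 48 hours with each compound at five concentrations. Insufficient inhibition: endpoint recorded as highest concentration tested. GI50 = concentration required for 50% inhibition of growth. Definition used: TGI = concentration required for complete inhibition of growth.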 Bounds are passed on as bounds.

For `COc1cc2c(cc1OCCNC(=O)/C=C1\C[C@H]3C=Nc4cc(OCc5ccccc5)c(OC)cc4C(=O)N3C1)N=C[C@@H]1CCCN1C2=O`, the GI50 in the experiment on 786-0 renal is 3.68 µM; in the experiment with NCI-H226 lung it was 32 µM; with SR leukemia it was 1.46 µM; in the experiment on SK-MEL-28 melanoma, 18.1 µM; in the experiment with MDA-MB-231 breast it was 5.11 µM; with HCT-15 colon it was 37.4 µM. Besides, the GI50 with M14 melanoma is 10.4 µM. In addition, the TGI with 786-0 renal is 16.8 µM; with NCI-H226 lung, 60.1 µM; with SR leukemia, 4.56 µM; in the experiment on SK-MEL-28 melanoma, 46.3 µM; in the experiment with MDA-MB-231 breast, 23.4 µM; with HCT-15 colon it was above 100 µM. The same compound had a TGI with M14 melanoma of 28.8 µM.
On to `Cc1n[nH]c2ccccc2c1=O`, for which the TGI with MOLT-4 leukemia, in the experiment with 786-0 renal, in the experiment on NCI-H226 lung, in the experiment on SR leukemia, with SK-MEL-28 melanoma and in the experiment on MDA-MB-231 breast was above 100 µM each time. The TGI in the experiment on HCT-15 colon, in the experiment on SF-539 CNS and in the experiment with M14 melanoma was above 100 µM throughout.
For the compound `Cc1cccc(N2C(=O)/C(=C/C(Cl)=C/c3ccc([N+](=O)[O-])cc3)SC2=S)c1C`, the GI50 in the experiment on MOLT-4 leukemia was 1.02 µM; with 786-0 renal, 2.07 µM; in the experiment with SR leukemia, 0.404 µM; in the experiment on SK-MEL-28 melanoma, 2.37 µM; in the experiment with MDA-MB-231 breast, 2.2 µM; in the experiment with CCRF-CEM leukemia, 0.741 µM. For the same compound, the GI50 with HCT-15 colon was 0.874 µM; in the experiment on SF-539 CNS, 2.37 µM; in the experiment on M14 melanoma, 2.39 µM. Besides, the TGI is above 100 µM with MOLT-4 leukemia; 4.68 µM in the experiment on 786-0 renal; above 100 µM in the experiment with SR leukemia; 7 µM in the experiment with SK-MEL-28 melanoma; 5.52 µM in the experiment with MDA-MB-231 breast; above 89.5 µM with CCRF-CEM leukemia. Besides, the values for the TGI in the experiment with HCT-15 colon, in the experiment with SF-539 CNS and in the experiment on M14 melanoma were 4.77 µM, 6.76 µM and 6.86 µM, respectively.
As for `COc1ccc(-c2nc3ccccc3s2)cc1OC`, the TGI with MOLT-4 leukemia, in the experiment on 786-0 renal, in the experiment with SR leukemia, with SK-MEL-28 melanoma, in the experiment on MDA-MB-231 breast and in the experiment on CCRF-CEM leukemia was above 100 µM each time. The TGI in the experiment on HCT-15 colon, with SF-539 CNS and in the experiment on M14 melanoma was above 100 µM in each case.
As to `O=C1NC(O)n2c(=O)[nH]c(=O)n21` (stereo not given), the TGI in the experiment on MOLT-4 leukemia, in the experiment on 786-0 renal, in the experiment on NCI-H226 lung, in the experiment on SR leukemia, in the experiment with SK-MEL-28 melanoma and in the experiment on CCRF-CEM leukemia was above 100 µM each time. The TGI in the experiment with HCT-15 colon, in the experiment on SF-539 CNS and in the experiment with M14 melanoma was above 100 µM each time.
As for `c1ccc2c(c1)[nH]c1c2nc2ccccn21`, the TGI in the experiment with MOLT-4 leukemia, in the experiment with 786-0 renal, in the experiment with NCI-H226 lung, with SR leukemia, in the experiment on SK-MEL-28 melanoma and in the experiment on CCRF-CEM leukemia was above 100 µM throughout. Moreover, the TGI with HCT-15 colon, in the experiment on SF-539 CNS and with M14 melanoma was above 100 µM throughout. Moreover, the GI50 with CCRF-CEM leukemia is 48.4 µM and > 100 µM.
Consider `COC(=O)C1C=CCC2CCCCC21N1CCCC1` (stereo not given), for which the TGI with MOLT-4 leukemia, in the experiment with 786-0 renal, with NCI-H226 lung, in the experiment on SR leukemia, with SK-MEL-28 melanoma and in the experiment with CCRF-CEM leukemia was above 100 µM each time. For the same compound, the TGI in the experiment on HCT-15 colon, with SF-539 CNS and with M14 melanoma was above 100 µM in each case.
`O=C1c2cccc3cccc(c23)C(=O)N1CCCCCN1CCN(CCN=c2cc3n(-c4ccc(Cl)cc4)c4ccccc4nc-3cc2Nc2ccc(Cl)cc2)CC1`: the GI50 in the experiment with 786-0 renal is 9.6 µM; with NCI-H226 lung it was 35.6 µM; in the experiment on SR leukemia, 7.54 µM; with SK-MEL-28 melanoma, 18.9 µM; in the experiment with MDA-MB-231 breast it was 5.82 µM; in the experiment with CCRF-CEM leukemia, 7.38 µM. Moreover, the GI50 in the experiment with HCT-15 colon was 9.28 µM; with SF-539 CNS, 12.1 µM; in the experiment with M14 melanoma, 7.53 µM. In addition, the TGI in the experiment with 786-0 renal was 30.7 µM; in the experiment with NCI-H226 lung it was above 50 µM; in the experiment on SR leukemia, 25.4 µM; in the experiment with SK-MEL-28 melanoma, above 50 µM; with MDA-MB-231 breast it was 30.3 µM; in the experiment with CCRF-CEM leukemia, 25.2 µM. In addition, the TGI in the experiment with HCT-15 colon is 37.5 µM; in the experiment on SF-539 CNS, 31 µM; in the experiment on M14 melanoma, 16.5 µM.
In the case of `OCC(O)C(O)C(O)C(/C=N\Nc1ncnc2c(Br)cc(Br)cc12)=N/Nc1ncnc2c(Br)cc(Br)cc12` (stereo not given), the GI50 in the experiment with MOLT-4 leukemia is 4.91 µM and 2.37 µM; with 786-0 renal, 2.73 µM and 5.76 µM. In addition, the TGI in the experiment with MOLT-4 leukemia was 34.3 µM and > 100 µM; with NCI-H226 lung, 9.42 µM; in the experiment on SR leukemia it was 17.3 µM and > 100 µM; in the experiment with MDA-MB-231 breast, 15.7 µM and > 100 µM; in the experiment with SF-539 CNS it was 33.9 µM; in the experiment with M14 melanoma, 28.3 µM and 44.2 µM.
Take `Cn1c(=O)oc2cc(C3CCC(=O)N3Cc3csc(-c4ccccc4)n3)ccc21` (stereo not given): the TGI with MOLT-4 leukemia, in the experiment on 786-0 renal, in the experiment with NCI-H226 lung, in the experiment on SR leukemia, in the experiment on SK-MEL-28 melanoma and with CCRF-CEM leukemia was above 100 µM throughout. For the same compound, the TGI with HCT-15 colon, with SF-539 CNS and with M14 melanoma was above 100 µM each time.
In the case of `O=C(Nc1sc2c(c1C(=O)O)CCCC2)c1ccco1`, the GI50 with MOLT-4 leukemia was above 50 µM; in the experiment with 786-0 renal, above 50 µM; in the experiment on SR leukemia it was 46.2 µM; in the experiment on SK-MEL-28 melanoma, above 50 µM; in the experiment with MDA-MB-231 breast it was above 50 µM; with CCRF-CEM leukemia it was above 50 µM. The GI50 with HCT-15 colon is 30.6 µM; in the experiment with SF-539 CNS it was 47.5 µM; in the experiment on M14 melanoma, above 50 µM. The TGI in the experiment on MOLT-4 leukemia, with 786-0 renal, with SR leukemia, in the experiment with SK-MEL-28 melanoma, with MDA-MB-231 breast and in the experiment on CCRF-CEM leukemia was above 50 µM in each case. The TGI in the experiment with HCT-15 colon, with SF-539 CNS and with M14 melanoma was above 50 µM in each case.
With `CC(=O)N1[C@H](C(=O)O)CS[C@H]1c1ccc(F)cc1`, the TGI in the experiment with MOLT-4 leukemia, with 786-0 renal, with NCI-H226 lung, in the experiment on SR leukemia, in the experiment on SK-MEL-28 melanoma and in the experiment on CCRF-CEM leukemia was above 100 µM each time. Moreover, the TGI in the experiment with HCT-15 colon, in the experiment with SF-539 CNS and with M14 melanoma was above 100 µM throughout.
